Test results as given in patent publication US20020026053A1, “Novel 3-(substituted) -2- indolinones compounds and use thereof as inhibitors of protein kinase activity” (priority 1997, published 2002).

Biological target: T1, Met receptor (EGFR/Met chimeric cells, EMR) (Homo sapiens, UniProt P08581)
T1 construct: expressed in transfected cells; the other entry of the earlier key: EGFR (P00533, Epidermal growth factor receptor)
Assay: Met Autophosphorylation Assay
Type: biochemical
Details: protocol P.130
Outline: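 Transiently transfected EGFR/Met chimeric (EMR) cells were lysed in HNTG with 1 mM PMSF. Met was captured on plates coated with goat anti-rabbit IgG, then rabbit anti-Met (C-28), using 90 μg lysate/100 μl for 60 min at room temperature. Phosphotyrosine was read by ELISA.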

T1 sequence (P08581 with tags, fused parts or gaps): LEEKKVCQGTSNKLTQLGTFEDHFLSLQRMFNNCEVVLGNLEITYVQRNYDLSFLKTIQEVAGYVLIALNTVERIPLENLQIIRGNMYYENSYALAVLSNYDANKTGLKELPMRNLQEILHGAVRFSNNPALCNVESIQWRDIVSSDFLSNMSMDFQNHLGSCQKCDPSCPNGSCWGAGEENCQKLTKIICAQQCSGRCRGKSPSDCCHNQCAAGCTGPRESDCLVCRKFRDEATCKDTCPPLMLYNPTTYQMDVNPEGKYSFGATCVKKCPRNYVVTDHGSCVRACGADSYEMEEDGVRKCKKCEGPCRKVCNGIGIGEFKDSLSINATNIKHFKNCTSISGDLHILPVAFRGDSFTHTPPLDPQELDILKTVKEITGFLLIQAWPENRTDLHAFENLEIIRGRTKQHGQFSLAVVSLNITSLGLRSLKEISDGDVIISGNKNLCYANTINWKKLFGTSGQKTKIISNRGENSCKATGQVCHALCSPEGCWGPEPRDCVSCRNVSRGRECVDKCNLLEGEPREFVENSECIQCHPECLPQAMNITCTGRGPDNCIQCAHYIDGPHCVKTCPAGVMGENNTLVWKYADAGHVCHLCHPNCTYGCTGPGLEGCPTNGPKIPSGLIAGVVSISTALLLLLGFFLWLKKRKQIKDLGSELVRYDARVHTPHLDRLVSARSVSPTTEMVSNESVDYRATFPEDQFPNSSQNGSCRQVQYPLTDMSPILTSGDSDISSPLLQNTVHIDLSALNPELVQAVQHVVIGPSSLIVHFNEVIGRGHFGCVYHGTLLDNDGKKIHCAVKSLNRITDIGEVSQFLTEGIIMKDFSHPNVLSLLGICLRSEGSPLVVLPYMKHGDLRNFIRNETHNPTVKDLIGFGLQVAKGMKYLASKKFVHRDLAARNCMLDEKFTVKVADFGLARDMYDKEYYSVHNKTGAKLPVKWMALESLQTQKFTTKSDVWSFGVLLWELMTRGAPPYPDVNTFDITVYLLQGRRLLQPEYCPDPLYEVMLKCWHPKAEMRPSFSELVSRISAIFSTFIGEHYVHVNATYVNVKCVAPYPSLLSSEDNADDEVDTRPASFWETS

Structure (SMILES) | Met Kinase % Inhibition (P.130) [%]
CN(C)CCCOc1ccc(C=C2C(=O)Nc3ccc(CCCl)cc32)cc1 [10739/G09] | 46.1
O=C1Nc2ccc(CCCl)cc2C1=Cc1ccoc1 [10739/G10] | 36.5
O=C1Nc2ccc(CCCl)cc2C1=Cc1ccc(CO)o1 [10739/G11] | 56.7
COc1ccc(C=C2C(=O)Nc3c(Br)cc(Br)c(C)c32)cc1C [10739/H02] | 26.6
Cc1c(Br)cc(Br)c2c1C(=Cc1cccc(OCc3ccccc3)c1)C(=O)N2 [10739/H03] | 10.4
Cc1c(Br)cc(Br)c2c1C(=Cc1ccc(OCc3ccccc3)cc1)C(=O)N2 [10739/H04] | −2.7
Cc1c(Br)cc(Br)c2c1C(=Cc1ccc(O)cc1Cl)C(=O)N2 [10739/H06] | 42.2
Cc1c(Br)cc(Br)c2c1C(=Cc1cc(O)c(O)c(O)c1)C(=O)N2 [10739/H07] | 93.7
COc1ccc(Oc2cccc(C=C3C(=O)Nc4c(Br)cc(Br)c(C)c43)c2)cc1 [10739/H08] | 22.9
Cc1c(Br)cc(Br)c2c1C(=Cc1ccoc1)C(=O)N2 [10739/H10] | 62.4
